Patent US8088805B2, “Inhibitors of histone deacetylase” (MethylGene Inc., priority 2004, dated 2012)

Key:
[1] = test system: HCT116 human colorectal carcinoma cells; assay: Human tumor xenograft in vivo, HCT116; conditions: Mus musculus, HCT-116; 30 mg/kg ip, mice; read-out: % Inhibition (relative to vehicle control) HCT116
Description: (§1) Eight to ten week old female BCD1 mice (Taconic Labs, Great Barrington, N.Y.) were injected subcutaneously in the flank area with 2×10^6 preconditioned HCT116 human colorectal carcinoma cells, SW48 colon cancer cells, and A549 lung cancer cells. Preconditioning of these cells was done by a minimum of three consecutive tumor transplantations in the same strain of nude mice. Subsequently, tumor fragments of approximately 30 mgs were excised and implanted subcutaneously in mice, in the left flank area, under Forene anesthesia (Abbott Labs, Geneva, Switzerland). When the tumors reached a mean volume of 100 mm^3, the mice were treated intraperitoneally by daily injection, with a solution of the histone deacetylase inhibitor in DMSO, at a starting dose of 10 mg/kg. The optimal dose of the HDAC inhibitor was established by dose response experiments according to standard protocols. Tumor volume was calculated every second day post infusion according to standard methods (e.g., Meyer et al., Int. J. Cancer 43: 851-856 (1989)).

SW48 colon cancer cells = assay: Human tumor xenograft in vivo, SW48; conditions: Mus musculus, 30 mg/kg ip, mice, read-out: % Inhibition (relative to vehicle control) SW48
Description: as §1

[2] = test system: Histone H4 acetylation in T24 human bladder cancer cells; assay: Histone H4 acetylation in whole cells by immunoblots; format: cell-based; conditions: ratio of EC50 of compound to EC50 of control MS-275, 16 h
Description: T24 human bladder cancer cells growing in culture were incubated with HDAC inhibitors for 16 h. Histones were extracted from the cells after the culture period as described by M. Yoshida et al. (J. Biol. Chem. 265(28): 17174-17179 (1990)). […] of total histone protein was loaded onto SDS/PAGE and transferred to nitrocellulose membranes. Membranes were probed with polyclonal antibodies specific for acetylated histone H-4 (Upstate Biotech Inc.), followed by horse radish peroxidase conjugated secondary antibodies (Sigma). Enhanced Chemiluminescence (ECL) (Amersham) detection was performed using Kodak films (Eastman Kodak). Acetylated H-4 signal was quantified by densitometry. Data are presented as the ratio of the concentration effective for […] the acetylated H-4 signal by 50% (EC50) using the indicated compound of the invention to a control compound, MS-275. If the indicated ratio is 1, then the compound of the invention is as effective as the MS-275 control compound. […] Further information regarding the MS-275 compound can be found in Suzuki et al., J. Med. Chem. 1999, pp. 3001-3003.

HCT116 cells = assay: MTT assay; format: cell-based; conditions: Homo sapiens, HCT-116, 72 hours
Description: HCT116 cells (2000/well) were plated into 96-well tissue culture plates one day before compound treatment. Compounds at various concentrations were added to the cells. The cells were incubated for 72 hours at 37° C. in 5% CO2 incubator. MTT (3-[4,5-dimethylthiazol-2-yl]-2,5diphenyl tetrazolium bromide, Sigma) was added at a final concentration of 0.5 mg/ml and incubated with the cells for 4 hours before one volume of solubilization buffer (50% N,N-dimethylformamide, 20% SDS, pH 4.7) was added onto the cultured cells. After overnight incubation, solubilized dye was quantified by colorimetric reading at 570 nM using a reference at 630 nM using an MR700 plate reader (Dynatech Laboratories Inc.). OD values were converted to cell numbers according to a standard growth curve of the relevant cell line. The concentration which reduces cell numbers to 50% of that of solvent treated cells is determined as MTT IC50. In Table 14, “a” indicates activity of ≦0.1 μM, “b” indicates activity of ≦1 μM, and “c” indicates activity of ≦5 μM.

[3] = molecular target: T1, cloned recombinant human HDAC-1 enzyme (Homo sapiens, UniProt Q13547); assay: HDAC-1 enzymatic inhibition, Assay 1 ([3H]-acetylated histone substrate); format: biochemical; conditions: Assay 1: [3H]-labeled acetylated histone substrate, recombinant hHDAC-1
T1 construct: made in house; host or cells: Baculovirus insect cell expression system
Description: Assay 1. HDAC inhibitors were screened against a cloned recombinant human HDAC-1 enzyme expressed and purified from a Baculovirus insect cell expression system. For deacetylase assays, 20,000 cpm of the [^3H]-metabolically labeled acetylated histone substrate (M. Yoshida et al., J. Biol. Chem. 265(28): 17174-17179 (1990)) was incubated with 30 μg of the cloned recombinant hHDAC-1 for 10 minutes at 37° C. The reaction was stopped by adding acetic acid (0.04 M, final concentration) and HCl (250 mM, final concentration). The mixture was extracted with ethyl acetate and the released [^3H]-acetic acid was quantified by scintillation counting. For inhibition studies, the enzyme was preincubated with compounds at 4° C. for 30 minutes prior to initiation of the enzymatic assay. IC50 values for HDAC enzyme inhibitors were determined by performing dose response curves with individual compounds and determining the concentration of inhibitor producing fifty percent of the maximal inhibition.
(§2) Assay 1 was used to measure HDAC activity of compounds 10c, 13e, 16d, 26b, 44, 47, 61a, 61b, 63, 134, 138, and 308. Assay 2 was used to measure HDAC activity of compounds 361, 366, 367, 368, 369, 370, 371, 372, 373, 374, 375, 376, 377, and 378. In Table 14, “a” indicates activity of ≦0.1 μM, “b” indicates activity of ≦1 μM, “c” indicates activity of ≦5 μM, and “d” indicates activity of >5 μm. For the H4-Ac T24 EC vs. MS-275 assay in Table 14, “u” indicates less than 1, “v” indicates 1, and “w” indicates greater than 1. For the H3 Ac t24 assay in Table 14, “x” indicates activity of ≦1 μM, “y” indicates activity of ≦10 μM, and “z” indicates activity of ≦20 μM.

Human HDAC-1 = Human HDAC-1 (Homo sapiens, UniProt Q13547); assay: HDAC-1 enzymatic inhibition, Assay 2 (Boc-Lys(Ac)-AMC, Fluor-de-Lys); format: biochemical; conditions: Assay 2: Boc-Lys(Ac)-AMC substrate, fluorescence; read-out: HDAC1 IC50
Description: Assay 2. The following protocol was also used to assay the compounds of the invention. In the assay, the buffer used was 25 mM HEPES, pH 8.0, 137 mM NaCl, 2.7 mM KCl, 1 mM MgCl2 and the substrate was Boc-Lys(Ac)-AMC in a 50 mM stock solution in DMSO. The enzyme stock solution was 4.08 μg/mL in buffer. The compounds were pre-incubated (2 μl in DMSO diluted to 13 μl in buffer for transfer to assay plate) with enzyme (20 μl of 4.08 μg/ml) for 10 minutes at room temperature (35 μl pre-incubation volume). The mixture was pre-incubated for 5 minutes at room temperature. The reaction was started by bringing the temperature to 37° C. and adding […] substrate. Total reaction volume was 50 μl. The reaction was stopped after 20 minutes by addition of 50 μl developer, prepared as directed by Biomol (Fluor-de-Lys developer, Cat. # KI-105). A plate was incubated in the dark for 10 minutes at room temperature before reading (λEx=360 nm, λEm=470 nm, Cutoff filter at 435 nm).
as §2

T1 sequence (Q13547 whole entry): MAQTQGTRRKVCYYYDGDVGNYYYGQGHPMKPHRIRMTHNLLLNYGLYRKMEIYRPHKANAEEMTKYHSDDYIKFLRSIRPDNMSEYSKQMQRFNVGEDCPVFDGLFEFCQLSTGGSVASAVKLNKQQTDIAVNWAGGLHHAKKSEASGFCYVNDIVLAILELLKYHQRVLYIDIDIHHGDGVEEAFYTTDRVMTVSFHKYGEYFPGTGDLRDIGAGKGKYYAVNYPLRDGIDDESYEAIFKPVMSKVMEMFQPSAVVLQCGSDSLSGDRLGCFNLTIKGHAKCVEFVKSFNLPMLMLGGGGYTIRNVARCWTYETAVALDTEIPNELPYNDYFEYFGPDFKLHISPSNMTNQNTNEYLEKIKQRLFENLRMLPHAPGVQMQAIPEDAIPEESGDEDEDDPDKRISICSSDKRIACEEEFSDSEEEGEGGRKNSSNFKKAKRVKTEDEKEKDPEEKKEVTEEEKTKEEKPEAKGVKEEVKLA
Chain of Human HDAC-1 (Q13547 whole entry): as above

| Compound | IC50 (HCT116 cells) | IC50 [3] | IC50 (Human HDAC-1) | inhibition in vivo at 30 mg/kg [1] | inhibition in vivo at 30 mg/kg (SW48 colon cancer cells) | H4-Ac T24 EC vs. MS-275 [2] |
| --- | --- | --- | --- | --- | --- | --- |
| COc1ccc(CCNc2ccnc(NCc3ccc(C(=O)Nc4ccccc4N)cc3)n2)cc1OC [10a, N-(2-Amino-phenyl)-4-({4-[2-(3,4-dimethoxy-phenyl)-ethylamino]-pyrimidin-2-ylamino}-methyl)-benzamide] |  |  |  | 16.1% | 23% |  |
| Nc1ccccc1NC(=O)c1ccc(CNc2nccc(-c3ccc(CN4CCOCC4)cc3)n2)cc1 [compound 44, N-(2-Amino-phenyl)-4-{[4-(4-morpholin-4-ylmethyl-phenyl)-pyrimidin-2-ylamino]-methyl}-benzamide] | ≤ 0.1 µM | 1 to 5 µM |  |  |  | v (“v” indicates 1) |
| Nc1ccccc1NC(=O)c1ccc(CNc2ccnc(-c3cccnc3)n2)cc1 [compound 47, N-(2-Amino-phenyl)-4-[(2-pyridin-3-yl-pyrimidin-4-ylamino)-methyl]-benzamide] | 0.1 to 1 µM | 1 to 5 µM |  |  |  | u (“u” indicates less than 1) |
| Nc1ccccc1NC(=O)c1ccc(CNc2cncc(-c3cccnc3)n2)cc1 [compound 63, N-(2-Amino-phenyl)-4-[(6-pyridin-3-yl-pyrazin-2-ylamino)-methyl]-benzamide] | 0.1 to 1 µM | 1 to 5 µM |  |  |  | v (“v” indicates 1) |
| Nc1ccccc1NC(=O)c1ccc(CNc2nc3ccc(O)cc3s2)cc1 [compound 134, N-(2-Amino-phenyl)-4-[(6-hydroxy-benzothiazol-2-ylamino)-methyl]-benzamide] | 0.1 to 1 µM | 1 to 5 µM |  |  |  | u (“u” indicates less than 1) |
| COc1cc(NCc2ccc3oc(C(=O)Nc4ccccc4N)cc3c2)cc(OC)c1OC [compound 308, 5-[(3,4,5-Trimethoxy-phenylamino)-methyl]-benzofuran-2-carboxylic acid (2-amino-phenyl)-amide] | 0.1 to 1 µM | 1 to 5 µM |  |  |  | w (“w” indicates greater than 1) |
| Nc1ccccc1NC(=O)c1ccc(N2CC[C@@H](Oc3cccnc3)C2)cc1 [compound 368, (R)—N-(2-Aminophenyl)-4-(3-(pyridin-3-yloxy)pyrrolidin-1-yl)benzamide] | 0.1 to 1 µM |  | 0.1 to 1 µM |  |  |  |
| Nc1ccccc1NC(=O)c1ccc(N2CC[C@@H](Nc3ccccc3)C2)cc1 [compound 370, (R)—N-(2-Aminophenyl)-4-(3-(phenylamino)pyrrolidin-1-yl)benzamide] | 1 to 5 µM |  | 1 to 5 µM |  |  |  |
| Nc1ccccc1NC(=O)c1ccc(N2CC[C@H](Oc3ccccc3)C2)cc1 [compound 371, (S)—N-(2-Aminophenyl)-4-(3-phenoxypyrrolidin-1-yl)benzamide] | 0.1 to 1 µM |  | 0.1 to 1 µM |  |  |  |
| COC(=O)c1ccc(O[C@H]2CCN(c3ccc(C(=O)Nc4ccccc4N)cc3)C2)cc1 [compound 372, (S)-Methyl-4-(1-(4-(2-aminophenylcarbamoyl)phenyl)pyrrolidin-3-yloxy)benzoate] | 0.1 to 1 µM |  | ≤ 0.1 µM |  |  |  |
| Nc1ccccc1NC(=O)c1ccc(N2CC[C@H](Oc3ccc(C(=O)O)cc3)C2)cc1 [compound 373, (S)-4-(1-(4-(2-Aminophenylcarbamoyl)phenyl)pyrrolidin-3-yloxy)benzoic acid] | > 5 µM |  | 0.1 to 1 µM |  |  |  |
| Nc1ccccc1NC(=O)c1ccc(N2CC[C@H](Oc3ccc(Oc4ccccc4)cc3)C2)cc1 [compound 376, (S)—N-(2-Aminophenyl)-4-(3-(4-phenoxyphenoxy)pyrrolidin-1-yl)benzamide] | 1 to 5 µM |  | 1 to 5 µM |  |  |  |
| Nc1ccccc1NC(=O)c1ccc(N2CC[C@H](Oc3ccc([N+](=O)[O-])cc3)C2)cc1 [compound 377, (S)—N-(2-Aminophenyl)-4-(3-(4-nitrophenoxy)pyrrolidin-1-yl)benzamide] | 0.1 to 1 µM |  | 0.1 to 1 µM |  |  |  |

Continued, in another order:

| IC50 (HCT116 cells) | IC50 [3] | IC50 (Human HDAC-1) | Compound | inhibition in vivo at 30 mg/kg [1] | inhibition in vivo at 30 mg/kg (SW48 colon cancer cells) | H4-Ac T24 EC vs. MS-275 [2] |
| --- | --- | --- | --- | --- | --- | --- |
| 0.1 to 1 µM | 1 to 5 µM |  | COc1cccc(CCNc2ccnc(NCc3ccc(C(=O)Nc4ccccc4N)cc3)n2)c1 [10c, N-(2-Amino-phenyl)-4-({4-[2-(3-methoxy-phenyl)-ethylamino]-pyrimidin-2-ylamino}-methyl)-benzamide] |  |  | v (“v” indicates 1) |
| 0.1 to 1 µM | 1 to 5 µM |  | Nc1ccccc1NC(=O)c1ccc(CNc2ncc(-c3cccnc3)cn2)cc1 [13e, N-(2-Amino-phenyl)-4-[(5-pyridin-3-yl-pyrimidin-2-ylamino)-methyl]-benzamide] |  |  | v (“v” indicates 1) |
| 0.1 to 1 µM | 0.1 to 1 µM |  | Nc1ccccc1NC(=O)c1ccc(CNc2nccc(-c3ccc(F)c(F)c3)n2)cc1 [16d, N-(2-Amino-phenyl)-4-{[4-(3,4-difluoro-phenyl)-pyrimidin-2-ylamino]-methyl}-benzamide] |  |  | v (“v” indicates 1) |
| ≤ 0.1 µM | 1 to 5 µM |  | CSc1nc(NCc2ccc(C(=O)Nc3ccccc3N)cc2)cc(-c2cccnc2)n1 [61a, N-(2-Amino-phenyl)-4-[(2-methylsulfanyl-6-pyridin-3-yl-pyrimidin-4-ylamino)-methyl]-benzamide] |  |  | v (“v” indicates 1) |
| ≤ 0.1 µM | 1 to 5 µM |  | Nc1ccccc1NC(=O)c1ccc(CNc2cc(-c3cccnc3)ncn2)cc1 [61b, N-(2-Amino-phenyl)-4-[(6-pyridin-3-yl-pyrimidin-4-ylamino)-methyl]-benzamide] |  |  | u (“u” indicates less than 1) |
